Data taken from ChEMBL document CHEMBL1201862, “PubChem BioAssay data set” (2004).
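Each compound was tested at five concentrations against cells in 96-well plates for 48 hours. The concentration for 50% growth inhibition is given as GI50.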 The source made the active and inactive calls. Cut-off read from the data, not from the text of the source: active = GI50 up to about 1.1 µM and inactive = higher.

Legend:
Assay in all cases: NCI tumour cell line growth inhibition, 48 h
[1] = system: HT-29
[2] = system: MCF7
[3] = system: TK-10
[4] = system: UO-31
[5] = system: ACHN
[6] = system: 786-0
[7] = system: K562
[8] = system: HCT-116
[9] = system: UACC-62
[10] = system: SW-620
[11] = system: SN12C
[12] = system: U-251
[13] = system: DU-145
[14] = system: OVCAR-3
[15] = system: RXF 393
[16] = system: KM12
[17] = system: SNB-19
[18] = system: LOX IMVI
[19] = system: CCRF-CEM

| SMILES | GI50 [1] | GI50 [2] | GI50 [3] | GI50 [4] | GI50 [5] | GI50 [6] | GI50 [7] | GI50 [8] | GI50 [9] | GI50 [10] | GI50 [11] | GI50 [12] | GI50 [13] | GI50 [14] | GI50 [15] | GI50 [16] | GI50 [17] | GI50 [18] | GI50 [19] |
| --- | --- | --- | --- | --- | --- | --- | --- | --- | --- | --- | --- | --- | --- | --- | --- | --- | --- | --- | --- |
| Cc1ccc(Nc2nnc(-c3ccc4c(c3)OCO4)o2)c(C)c1 | > 100 µM (inactive) | 38.8 µM (inactive) | > 100 µM (inactive) | > 100 µM (inactive) | > 100 µM (inactive) | 41.4 µM (inactive) | > 100 µM (inactive) | > 100 µM (inactive) | 32.8 µM (inactive) | > 100 µM (inactive) | > 100 µM (inactive) | 39.2 µM (inactive) | > 100 µM (inactive) | > 100 µM (inactive) | > 100 µM (inactive) | > 100 µM (inactive) | 40.2 µM (inactive) | > 100 µM (inactive) |  |
| CC[C@@H]1CN(C)[C@H]2Cc3c([nH]c4ccccc34)C(=O)C[C@H]1C2C(=O)OC (stereo partly specified) | > 100 µM (inactive) | > 100 µM (inactive) | > 58.9 µM (inactive) | > 100 µM (inactive) | > 100 µM (inactive) | > 100 µM (inactive) | > 100 µM (inactive) | > 100 µM (inactive) | > 100 µM (inactive) | > 100 µM (inactive) | > 100 µM (inactive) | > 100 µM (inactive) | > 100 µM (inactive) | > 100 µM (inactive) | > 77.8 µM (inactive) | > 100 µM (inactive) | > 100 µM (inactive) | > 100 µM (inactive) | 96.6 µM (inactive) |
| CC(C)CC(NC(=O)C(CCI)Cc1ccccc1)C(=O)Nc1ccccc1 (stereo unspecified) |  | 39.7 µM (inactive) | 88.7 µM (inactive) | 22.1 µM (inactive) | 53.5 µM (inactive) | > 100 µM (inactive) | 44.6 µM (inactive) | 43.4 µM (inactive) | > 100 µM (inactive) | 49.8 µM (inactive) | > 100 µM (inactive) | > 100 µM (inactive) | > 100 µM (inactive) | > 100 µM (inactive) | > 100 µM (inactive) | 37.5 µM (inactive) | 98.2 µM (inactive) | 33.3 µM (inactive) | 30.1 µM (inactive) |
| CN(C(=O)C1=CCCCCC1)c1ccccc1I |  | 51.5 µM (inactive) |  | 41.4 µM (inactive) | 59.6 µM (inactive) | 27.8 µM (inactive) | 59.2 µM (inactive) | 25.9 µM (inactive) | 33.2 µM (inactive) | 40.6 µM (inactive) | 49.1 µM (inactive) | 44.9 µM (inactive) | 50.7 µM (inactive) | 49.7 µM (inactive) | > 100 µM (inactive) | 19.1 µM (inactive) | 62.5 µM (inactive) | 28.9 µM (inactive) | 41.7 µM (inactive) |
| Cc1[nH]c2c(c1Cc1ccccc1)C1=NC=C(O)NN1C=N2 | 80 µM (inactive) | 14.9 µM (inactive) | 74.1 µM (inactive) | > 100 µM (inactive) | 44.3 µM (inactive) | > 100 µM (inactive) |  | 85.7 µM (inactive) | 65.6 µM (inactive) | 21.5 µM (inactive) | > 100 µM (inactive) | 70.1 µM (inactive) | > 100 µM (inactive) | 60.4 µM (inactive) | 16.6 µM (inactive) | > 100 µM (inactive) | > 100 µM (inactive) |  | 20.5 µM (inactive) |
| CCc1nnc(CC)n1NCCCC(=O)O | > 100 µM (inactive) | > 100 µM (inactive) | > 100 µM (inactive) | > 100 µM (inactive) | > 100 µM (inactive) | > 100 µM (inactive) | > 100 µM (inactive) | > 100 µM (inactive) | > 100 µM (inactive) | > 100 µM (inactive) | > 100 µM (inactive) | > 100 µM (inactive) | > 100 µM (inactive) | > 100 µM (inactive) | > 100 µM (inactive) | > 100 µM (inactive) | > 100 µM (inactive) | > 100 µM (inactive) | > 100 µM (inactive) |
| CC(C)(C)c1cc2c(O)c(c1)Cc1cc(C(C#N)(Cc3ccc4ccccc4c3)Cc3ccc4ccccc4c3)cc(c1O)Cc1cc(C(C)(C)C)cc(c1O)Cc1cc(C(C#N)(Cc3ccc4ccccc4c3)Cc3ccc4ccccc4c3)cc(c1O)C2 | > 100 µM (inactive) | > 100 µM (inactive) | > 100 µM (inactive) | > 100 µM (inactive) | > 100 µM (inactive) | > 100 µM (inactive) | > 100 µM (inactive) | > 100 µM (inactive) | > 100 µM (inactive) | > 100 µM (inactive) | > 100 µM (inactive) | 67 µM (inactive) | > 100 µM (inactive) | > 100 µM (inactive) | > 100 µM (inactive) | > 100 µM (inactive) | > 100 µM (inactive) | > 100 µM (inactive) | > 100 µM (inactive) |
| COC(=O)c1c(O)ccc2c1c1c(n2Cc2ccccn2)C(=O)c2ccccc2C1=O | 4.22 µM (inactive) | 54.1 µM (inactive) | 99.8 µM (inactive) | 87.9 µM (inactive) | 18.5 µM (inactive) | 30.9 µM (inactive) | > 100 µM (inactive) | 79.8 µM (inactive) | > 100 µM (inactive) |  | > 100 µM (inactive) | 35.7 µM (inactive) | 42.4 µM (inactive) | 18.1 µM (inactive) | 52.5 µM (inactive) | 46.2 µM (inactive) | 86.5 µM (inactive) |  | 80 µM (inactive) |
| CC(C)C1=CC(=O)[C@@](C)(C2[C@H](O)C[C@@]3(C)[C@@H]4CC=C5[C@@H](CC[C@@H](OC6OCC(O)C(O)C6OC6OC(C)C(O)C(O)C6O)C5(C)C)[C@]4(C)C(=O)C[C@]23C)O1 (stereo partly specified) | > 100 µM (inactive) | > 100 µM (inactive) |  | > 100 µM (inactive) | > 100 µM (inactive) | > 100 µM (inactive) | > 100 µM (inactive) | > 100 µM (inactive) | > 100 µM (inactive) | > 100 µM (inactive) | > 100 µM (inactive) | > 100 µM (inactive) | > 100 µM (inactive) | > 100 µM (inactive) | > 100 µM (inactive) | > 100 µM (inactive) | > 100 µM (inactive) |  | > 100 µM (inactive) |
| CN(CCCNC(=O)c1n[nH]c2c1ccc1ccccc12)CCCNC(=O)c1n[nH]c2c1ccc1ccccc12 | 14.6 µM (inactive) | 15 µM (inactive) | 17.9 µM (inactive) | 14.6 µM (inactive) | 17.6 µM (inactive) | 10.9 µM (inactive) |  | 12.7 µM (inactive) | 9.91 µM (inactive) | 16.3 µM (inactive) | 16.3 µM (inactive) | 14.8 µM (inactive) | 15.7 µM (inactive) | 13.8 µM (inactive) | 14.4 µM (inactive) | 16.9 µM (inactive) | 18.8 µM (inactive) | 12.5 µM (inactive) | 11.1 µM (inactive) |
| O=C1O/C(=C(/Cl)c2cccc3ccccc23)c2ccccc21 | > 100 µM (inactive) | 0.735 µM (active) | > 100 µM (inactive) | > 100 µM (inactive) |  | 82.2 µM (inactive) | > 100 µM (inactive) | > 100 µM (inactive) | > 100 µM (inactive) | > 100 µM (inactive) | > 100 µM (inactive) | 96.8 µM (inactive) | > 100 µM (inactive) | > 100 µM (inactive) | > 100 µM (inactive) | 7.62 µM (inactive) | > 100 µM (inactive) |  | > 10 µM (inactive) |
| COC(=O)[C@]12CC[C@H]3CN(C(=O)OCc4ccccc4)[C@H]([C@H]31)[C@H](c1ccco1)N2 | 81.3 µM (inactive) | 42.3 µM (inactive) | > 100 µM (inactive) | > 100 µM (inactive) | 43.5 µM (inactive) | 77.8 µM (inactive) | 30.4 µM (inactive) | 40.8 µM (inactive) | 23.7 µM (inactive) | > 100 µM (inactive) | 46.2 µM (inactive) | 84.7 µM (inactive) | > 100 µM (inactive) | 51.6 µM (inactive) | > 100 µM (inactive) | 26.4 µM (inactive) | > 100 µM (inactive) | 53.2 µM (inactive) | 33.4 µM (inactive) |
| CC(=O)Oc1ccc2c(c1)CC[C@@H]1C2[C@@H](O[N+](=O)[O-])C[C@@]2(C)C1CC[C@@H]2O (stereo partly specified) | 30.8 µM (inactive) | 41 µM (inactive) | 49.8 µM (inactive) | 43.9 µM (inactive) | 61.1 µM (inactive) | 33.8 µM (inactive) | 11.9 µM (inactive) | 29.4 µM (inactive) | 26.5 µM (inactive) | 35.5 µM (inactive) | 34.5 µM (inactive) | 27.6 µM (inactive) | 28.7 µM (inactive) | 35.1 µM (inactive) | 38.7 µM (inactive) | 29.9 µM (inactive) | 35.6 µM (inactive) | 27.7 µM (inactive) | 22.1 µM (inactive) |
| CO/C=C(/C(=O)OC)c1ccccc1[C@@H]1CC1c1cccc(F)c1 (stereo partly specified) | 30.4 µM (inactive) | 43.6 µM (inactive) | 37.9 µM (inactive) | 31.8 µM (inactive) | 23.2 µM (inactive) | 41 µM (inactive) | 44.2 µM (inactive) | 21.1 µM (inactive) | 18.2 µM (inactive) |  | 29.6 µM (inactive) | 30.5 µM (inactive) | 33 µM (inactive) | 27.6 µM (inactive) | 58.3 µM (inactive) | 24.7 µM (inactive) | 53.3 µM (inactive) |  | 26.5 µM (inactive) |
| COc1ccccc1-c1nc(O)c2ccccc2n1 |  | > 100 µM (inactive) |  | > 100 µM (inactive) | > 100 µM (inactive) | > 100 µM (inactive) |  | > 100 µM (inactive) | > 100 µM (inactive) | > 100 µM (inactive) | 56 µM (inactive) | > 100 µM (inactive) | > 100 µM (inactive) | > 100 µM (inactive) | > 100 µM (inactive) | > 100 µM (inactive) | > 100 µM (inactive) |  | > 100 µM (inactive) |
